From US10131652B2, “Pyrimidinyloxy benzene derivatives as herbicides” (E. I. DU PONT DE NEMOURS AND COMPANY, priority 2014, dated 2018)
Like-named read-outs stand apart in the source and are kept apart here.

Experiments:
Test in all cases: Test F pre-/postemergence plant response
Type in all cases: in vivo
[1] = tested on: Italian ryegrass (Lolium multiflorum); details: Lolium multiflorum, scale 0 to 100, read-out: Plant response rating, Ryegrass, Italian; for pest or weed control at 16 g/ha: 16 g ai/ha; for pest or weed control at 31 g/ha: 31 g ai/ha; for pest or weed control at 125 g/ha: 125 g ai/ha
Summary of the method: (§1)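 Formulation: non-phytotoxic solvent mix + surfactant. Preemergence: applied to seeded silt loam. Postemergence: foliar, 1- to 4-leaf plants, 2–18 cm. Greenhouse hold 14–21 days; visual score vs controls, 0 = no effect, 100 = complete control; dash = not tested.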

[2] = tested on: arrowleaf sida (Sida rhombifolia); details: Sida rhombifolia, scale 0 to 100, read-out: Plant response rating, Arrowleaf Sida
Summary of the method: as §1

[3] = tested on: barnyardgrass (Echinochloa crus-galli); details: Echinochloa crus-galli, scale 0 to 100, read-out: Plant response rating, Barnyardgrass
Summary of the method: as §1

[4] = tested on: corn (Zea mays); details: Zea mays, scale 0 to 100
Summary of the method: as §1

[5] = tested on: dayflower (Virginia (VA) dayflower, Commelina virginica); details: Commelina virginica, scale 0 to 100, read-out: Plant response rating, Dayflower, VA
Summary of the method: as §1

[6] = tested on: goosegrass (Eleusine indica); details: Eleusine indica, pre-emergence, scale 0 to 100, read-out: Plant response rating, Goosegrass
Summary of the method: as §1

[7] = tested on: hairy beggarticks (Bidens pilosa); details: Bidens pilosa, scale 0 to 100, read-out: Plant response rating, Beggarticks
Summary of the method: as §1

[8] = tested on: lambsquarters (Chenopodium album); details: Chenopodium album, pre-emergence, scale 0 to 100, read-out: Plant response rating, Lambsquarters
Summary of the method: as §1

[9] = tested on: palmer pigweed (Amaranthus palmeri); details: Amaranthus palmeri, post-emergence, scale 0 to 100, read-out: Plant response rating, Pigweed, Palmer
Summary of the method: as §1

[10] = tested on: ragweed (common ragweed, Ambrosia elatior); details: Ambrosia artemisiifolia, pre-emergence, scale 0 to 100, read-out: Plant response rating, Ragweed
Summary of the method: as §1

[11] = tested on: sandbur (southern sandbur, Cenchrus echinatus); details: Cenchrus echinatus, scale 0 to 100, read-out: Plant response rating, Sandbur
Summary of the method: as §1

[12] = tested on: soybean (Glycine max); details: Glycine max, scale 0 to 100, read-out: Plant response rating, Soybean
Summary of the method: as §1

[13] = tested on: surinam grass (Brachiaria decumbens); details: Urochloa decumbens, pre-emergence, scale 0 to 100, read-out: Plant response rating, Surinam Grass
Summary of the method: as §1

[14] = tested on: velvetleaf (Abutilon theophrasti); details: Abutilon theophrasti, pre-emergence, scale 0 to 100, read-out: Plant response rating, Velvetleaf
Summary of the method: as §1

[15] = tested on: waterhemp (common waterhemp, Amaranthus rudis); details: Amaranthus tuberculatus, scale 0 to 100, read-out: Plant response rating, Waterhemp
Summary of the method: as §1

[16] = tested on: yellow nutsedge (Cyperus esculentus); details: Cyperus, pre-emergence, scale 0 to 100, read-out: Plant response rating, Nutsedge, Yellow
Summary of the method: as §1

[17] = post-emergence, 8 g ai/ha Postemergence
[18] = pre-emergence, 8 g ai/ha Preemergence
[19] = post-emergence, 16 g ai/ha Postemergence
[20] = post-emergence, 31 g ai/ha Postemergence
[21] = post-emergence, 62 g ai/ha Postemergence
[22] = post-emergence, 125 g ai/ha Postemergence
[23] = pre-emergence, 16 g ai/ha Preemergence
[24] = pre-emergence, 31 g ai/ha Preemergence
[25] = pre-emergence, 62 g ai/ha Preemergence
[26] = pre-emergence, 125 g ai/ha Preemergence

## FC(F)c1cc(-c2ccccc2Oc2ncc(Cl)cn2)no1 [Compound 35, 5-chloro-2-[2-[5-(difluoromethyl)-3-isoxazolyl]phenoxy]pyrimidine]
[1]; [17]
  pest or weed control at 8 g/ha: 0%
[1]; post-emergence, Postemergence
  pest or weed control at 16 g/ha: 0%
  pest or weed control at 31 g/ha: 0%
  pest or weed control at 125 g/ha: 0%
[1]; post-emergence, 62 g ai/ha, Postemergence
  pest or weed control at 62 g/ha: 0%
[1]; [18]
  pest or weed control at 8 g/ha: 0%
[1]; pre-emergence, Preemergence
  pest or weed control at 16 g/ha: 0%
  pest or weed control at 31 g/ha: 15%
  pest or weed control at 125 g/ha: 70%
  pest or weed control at 62 g/ha: 65%
[2]; [17]
  pest or weed control at 8 g/ha: 60%
[2]; [19]
  pest or weed control at 16 g/ha: 80%
[2]; [20]
  pest or weed control at 31 g/ha: 95%
[2]; [21]
  pest or weed control at 62 g/ha: 98%
[2]; [22]
  pest or weed control at 125 g/ha: 98%
[2]; [18]
  pest or weed control at 8 g/ha: 50%
[2]; [23]
  pest or weed control at 16 g/ha: 80%
[2]; [24]
  pest or weed control at 31 g/ha: 100%
[2]; [25]
  pest or weed control at 62 g/ha: 100%
[2]; [26]
  pest or weed control at 125 g/ha: 100%
[3]; [17]
  pest or weed control at 8 g/ha: 0%
[3]; [19]
  pest or weed control at 16 g/ha: 0%
[3]; [20]
  pest or weed control at 31 g/ha: 0%
[3]; [21]
  pest or weed control at 62 g/ha: 10%
[3]; [22]
  pest or weed control at 125 g/ha: 20%
[3]; [18]
  pest or weed control at 8 g/ha: 0%
[3]; [23]
  pest or weed control at 16 g/ha: 0%
[3]; [24]
  pest or weed control at 31 g/ha: 20%
[3]; [25]
  pest or weed control at 62 g/ha: 10%
[3]; [26]
  pest or weed control at 125 g/ha: 65%
[4]; [17]
  Corn plant response rating (crop injury, 0 = no effect, 100 = complete kill) at 8 g/ha: 10%
[4]; [19]
  Corn plant response rating (crop injury, 0 = no effect, 100 = complete kill) at 16 g/ha: 10%
[4]; [20]
  Corn plant response rating (crop injury, 0 = no effect, 100 = complete kill) at 31 g/ha: 15%
[4]; [21]
  Corn plant response rating (crop injury, 0 = no effect, 100 = complete kill) at 62 g/ha: 15%
[4]; [22]
  Corn plant response rating (crop injury, 0 = no effect, 100 = complete kill) at 125 g/ha: 20%
[4]; [18]
  Corn plant response rating (crop injury, 0 = no effect, 100 = complete kill) at 8 g/ha: 0%
[4]; [23]
  Corn plant response rating (crop injury, 0 = no effect, 100 = complete kill) at 16 g/ha: 0%
[4]; [24]
  Corn plant response rating (crop injury, 0 = no effect, 100 = complete kill) at 31 g/ha: 30%
[4]; [25]
  Corn plant response rating (crop injury, 0 = no effect, 100 = complete kill) at 62 g/ha: 0%
[4]; [26]
  Corn plant response rating (crop injury, 0 = no effect, 100 = complete kill) at 125 g/ha: 20%
[5]; [17]
  pest or weed control at 8 g/ha: 10%
[5]; [19]
  pest or weed control at 16 g/ha: 40%
[5]; [20]
  pest or weed control at 31 g/ha: 40%
[5]; [21]
  pest or weed control at 62 g/ha: 50%
[5]; [22]
  pest or weed control at 125 g/ha: 80%
[5]; [18]
  pest or weed control at 8 g/ha: 0%
[5]; [23]
  pest or weed control at 16 g/ha: 25%
[5]; [24]
  pest or weed control at 31 g/ha: 65%
[5]; [25]
  pest or weed control at 62 g/ha: 90%
[5]; [26]
  pest or weed control at 125 g/ha: 95%
[6]; 8 g ai/ha Preemergence
  pest or weed control at 8 g/ha: 0%
[6]; 16 g ai/ha Preemergence
  pest or weed control at 16 g/ha: 0%
[6]; 31 g ai/ha Preemergence
  pest or weed control at 31 g/ha: 60%
[6]; 125 g ai/ha Preemergence
  pest or weed control at 125 g/ha: 95%
[6]; Preemergence
  pest or weed control at 62 g/ha: 75%
[7]; [17]
  pest or weed control at 8 g/ha: 50%
[7]; [19]
  pest or weed control at 16 g/ha: 50%
[7]; [20]
  pest or weed control at 31 g/ha: 60%
[7]; [21]
  pest or weed control at 62 g/ha: 65%
[7]; [22]
  pest or weed control at 125 g/ha: 70%
[7]; [18]
  pest or weed control at 8 g/ha: 0%
[7]; [23]
  pest or weed control at 16 g/ha: 0%
[7]; [24]
  pest or weed control at 31 g/ha: 20%
[7]; [25]
  pest or weed control at 62 g/ha: 20%
[7]; [26]
  pest or weed control at 125 g/ha: 50%
[8]; 8 g ai/ha Preemergence
  pest or weed control at 8 g/ha: 90%
[8]; 16 g ai/ha, Preemergence
  pest or weed control at 16 g/ha: 98%
[8]; 31 g ai/ha, Preemergence
  pest or weed control at 31 g/ha: 100%
[8]; 125 g ai/ha, Preemergence
  pest or weed control at 125 g/ha: 100%
[8]; Preemergence
  pest or weed control at 62 g/ha: 100%
[9]; 8 g ai/ha Postemergence
  pest or weed control at 8 g/ha: 60%
[9]; 16 g ai/ha Postemergence
  pest or weed control at 16 g/ha: 75%
[9]; 31 g ai/ha Postemergence
  pest or weed control at 31 g/ha: 95%
[9]; 62 g ai/ha Postemergence
  pest or weed control at 62 g/ha: 100%
[9]; 125 g ai/ha Postemergence
  pest or weed control at 125 g/ha: 100%
[10]; 8 g ai/ha Preemergence
  pest or weed control at 8 g/ha: 0%
[10]; 16 g ai/ha Preemergence
  pest or weed control at 16 g/ha: 0%
[10]; 31 g ai/ha Preemergence
  pest or weed control at 31 g/ha: 0%
[10]; 125 g ai/ha Preemergence
  pest or weed control at 125 g/ha: 70%
[10]; Preemergence
  pest or weed control at 62 g/ha: 40%
[11]; [17]
  pest or weed control at 8 g/ha: 0%
[11]; [19]
  pest or weed control at 16 g/ha: 0%
[11]; [20]
  pest or weed control at 31 g/ha: 0%
[11]; [21]
  pest or weed control at 62 g/ha: 0%
[11]; [22]
  pest or weed control at 125 g/ha: 0%
[11]; [18]
  pest or weed control at 8 g/ha: 0%
[11]; [23]
  pest or weed control at 16 g/ha: 10%
[11]; [24]
  pest or weed control at 31 g/ha: 10%
[11]; [26]
  pest or weed control at 125 g/ha: 65%
[11]; pre-emergence, Preemergence
  pest or weed control at 62 g/ha: 40%
[12]; [17]
  plant injury at 8 g/ha: 70%
[12]; [19]
  plant injury at 16 g/ha: 80%
[12]; [20]
  plant injury at 31 g/ha: 85%
[12]; [21]
  plant injury at 62 g/ha: 95%
[12]; [22]
  plant injury at 125 g/ha: 98%
[12]; [18]
  plant injury at 8 g/ha: 0%
[12]; [23]
  plant injury at 16 g/ha: 35%
[12]; [24]
  plant injury at 31 g/ha: 40%
[12]; [26]
  plant injury at 125 g/ha: 90%
[12]; pre-emergence, Preemergence
  plant injury at 62 g/ha: 70%
[13]; 8 g ai/ha Preemergence
  pest or weed control at 8 g/ha: 0%
[13]; 16 g ai/ha Preemergence
  pest or weed control at 16 g/ha: 0%
[13]; 31 g ai/ha Preemergence
  pest or weed control at 31 g/ha: 0%
[13]; 125 g ai/ha Preemergence
  pest or weed control at 125 g/ha: 35%
[13]; Preemergence
  pest or weed control at 62 g/ha: 20%
[14]; 8 g ai/ha Preemergence
  pest or weed control at 8 g/ha: 40%
[14]; 16 g ai/ha Preemergence
  pest or weed control at 16 g/ha: 70%
[14]; 31 g ai/ha Preemergence
  pest or weed control at 31 g/ha: 70%
[14]; 125 g ai/ha Preemergence
  pest or weed control at 125 g/ha: 100%
[14]; Preemergence
  pest or weed control at 62 g/ha: 100%
[15]; [17]
  pest or weed control at 8 g/ha: 70%
[15]; [19]
  pest or weed control at 16 g/ha: 85%
[15]; [20]
  pest or weed control at 31 g/ha: 90%
[15]; [21]
  pest or weed control at 62 g/ha: 100%
[15]; [22]
  pest or weed control at 125 g/ha: 100%
[15]; [18]
  pest or weed control at 8 g/ha: 100%
[15]; [23]
  pest or weed control at 16 g/ha: 100%
[15]; [24]
  pest or weed control at 31 g/ha: 100%
[15]; [26]
  pest or weed control at 125 g/ha: 100%
[15]; pre-emergence, Preemergence
  pest or weed control at 62 g/ha: 100%
[16]; 8 g ai/ha Preemergence
  pest or weed control at 8 g/ha: 0%
[16]; 16 g ai/ha Preemergence
  pest or weed control at 16 g/ha: 0%
[16]; 31 g ai/ha Preemergence
  pest or weed control at 31 g/ha: 0%
[16]; 125 g ai/ha Preemergence
  pest or weed control at 125 g/ha: 35%
[16]; Preemergence
  pest or weed control at 62 g/ha: 10%
